Consider 19 compounds from patent US5728710A, “Rapamycin derivatives” (SmithKline Beecham Corporation, priority 1995, dated 1998).

The test system of the first assay is Saccharomyces cerevisiae. The assay can be described thus: Assay for Antifungal Activity (agar well zone of inhibition). Type of assay: cell-based. Conditions: zones of inhibition after 48 hours, YPD agar. As to the method: Yeast organism (Saccharomyces cerevisiae) in logarithmic growth were plated on complete agar medium (YPD). Compounds dissolved in an appropriate aqueous or organic solvent were placed in wells punched in the agar. Plates were incubated for 48 hours and zones of inhibition were measured.
Regarding “7-Demethoxy-7 (S)-(2' 4'-dimethoxyphenyl)-rapamycin [Example 15]”, the “Antifungal IC12” value is listed as less than 500 ng/mL.

In the case of `COc1ccc(C2CC3CCC(C)C(O)(O3)C(=O)C(=O)N3CCCCC3C(=O)OC(C(C)CC3CCC(O)C(OC)C3)CC(=O)C(C)C=C(C)C(O)C(OC)C(=O)C(C)CC(C)C=CC=CC=C2C)c(OC)c1` [Example 16, 7-Demethoxy-7 (R)-2',4'-dimethoxyphenyl)-rapamycin], the “Antifungal IC12” value is less than 500 ng/mL.

For another assay, the system named is Spleen cells from BDF1 female mice. The assay can be described thus: Mitogenesis Assay for Immunosuppressive Activity (concanavalin A, 3H-thymidine). Conditions: Concanavalin A 5 μg/ml, 72 hours at 37° C., 3H-thimidine uptake last 18 hours; read-out: Mitogenesis IC50. Type of assay: cell-based. As to the method: Spleen cells from BDF1 female mice were established in RPMI with 10% fetal calf serum at 5×10^6 /mL. One hundred […] of this suspension (5×10^5 cells) were dispensed into 96-well round-bottomed microtiter plates (Linbro, Flow Laboratories). Concanavalin A (5 μg/ml) was added as the mitogenic stimulus, and the final volume in the microtiter wells was adjusted to 200 μL with RPMI. Cell cultures were incubated for 72 hours at 37° C. in a 5% CO2 atmosphere and pulsed with 0.5 μCi ^3 H-thymidine (specific activity […]) for the last 18 hours of the 72 hour culture. The cells were harvested on an automated multiple sample harvester and cell-associated radioactivity counted in a Beckman liquid scintillation counter. The results are expressed as the mean values derived from quadruplicate measurements. Cell viability was determined by trypan blue exclusion after 72 hours of incubation. Compounds to be tested were added to the microtiter plates at the appropriate dilutions prior to the addition of cells.
In the case of “7-Demethoxy-7 (S)-(2' 4'-dimethoxyphenyl)-rapamycin [Example 15]”, the 50% inhibitory concentration (IC50) is less than 500 nM.

On to `COc1ccc(C2CC3CCC(C)C(O)(O3)C(=O)C(=O)N3CCCCC3C(=O)OC(C(C)CC3CCC(O)C(OC)C3)CC(=O)C(C)C=C(C)C(O)C(OC)C(=O)C(C)CC(C)C=CC=CC=C2C)c(OC)c1` [Example 16, 7-Demethoxy-7 (R)-2',4'-dimethoxyphenyl)-rapamycin], for which the IC50 is less than 1000 nM.

Still in this assay, the particulars now being: Mus musculus, read-out: Mitogenesis IC50.
In the case of `CO[C@@H]1C[C@@H]2CC[C@@H](C)[C@@](O)(O2)C(=O)C(=O)N2CCCC[C@H]2C(=O)O[C@H]([C@H](C)C[C@@H]2CC[C@@H](O)[C@H](OC)C2)CC(=O)[C@H](C)/C=C(\C)[C@@H](O)[C@@H](OC)C(=O)[C@H](C)C[C@H](C)/C=C/C=C/C=C/1C` [Example 20, 7-Epirapamycin], the 50% inhibitory concentration (IC50) was less than 500 nM.

The assay is the same for the next values; noted with them: Mus musculus; Concanavalin A 5 μg/ml, 72 hours at 37° C., 3H-thimidine uptake last 18 hours; read-out: Mitogenesis IC50.
For `CO[C@@H]1C[C@H](C[C@@H](C)[C@@H]2CC(=O)[C@H](C)/C=C(\C)[C@@H](O)[C@@H](OC)C(=O)[C@H](C)C[C@H](C)/C=C/C=C/C=C(\C)[C@H](OCCO)C[C@@H]3CC[C@@H](C)[C@@](O)(O3)C(=O)C(=O)N3CCCC[C@H]3C(=O)O2)CC[C@H]1O` [Example 5, 7-Demethoxy-7(R)-(2-hydroxyethoxy)rapamycin], the concentration for half-maximal inhibition (IC50) is less than 500 nM.

For `CO[C@@H]1C[C@H](C[C@@H](C)[C@@H]2CC(=O)[C@H](C)/C=C(\C)[C@@H](O)[C@@H](OC)C(=O)[C@H](C)C[C@H](C)/C=C/C=C/C=C(\C)[C@H](OC(C)=O)C[C@@H]3CC[C@@H](C)[C@@](O)(O3)C(=O)C(=O)N3CCCC[C@H]3C(=O)O2)CC[C@H]1O` [Example 6, 7-Demethoxy-7(R)-acetoxyrapamycin], the half-inhibitory concentration (IC50) is less than 500 nM.

In the case of `CO[C@@H]1C[C@H](C[C@@H](C)[C@@H]2CC(=O)[C@H](C)/C=C(\C)[C@@H](O)[C@@H](OC)C(=O)[C@H](C)C[C@H](C)/C=C/C=C/C=C(\C)[C@H](c3ccco3)C[C@@H]3CC[C@@H](C)[C@@](O)(O3)C(=O)C(=O)N3CCCC[C@H]3C(=O)O2)CC[C@H]1O` [Example 14, 7-Demethoxy-7(R)-(2'-furanyl)rapamycin], the concentration for half-maximal inhibition (IC50) is less than 500 nM.

As to `CO[C@@H]1C[C@H](C[C@@H](C)[C@@H]2CC(=O)[C@H](C)/C=C(\C)[C@@H](O)[C@@H](OC)C(=O)[C@H](C)C[C@H](C)/C=C/C=C/C=C(\C)[C@H](SC)C[C@@H]3CC[C@@H](C)[C@@](O)(O3)C(=O)C(=O)N3CCCC[C@H]3C(=O)O2)CC[C@H]1O` [Example 10, 7-Demethoxy-7(R)-methylthiorapamycin], the IC50 is less than 500 nM.

`C=CC[C@H]1C[C@@H]2CC[C@@H](C)[C@@](O)(O2)C(=O)C(=O)N2CCCC[C@H]2C(=O)O[C@H]([C@H](C)C[C@@H]2CC[C@@H](O)[C@H](OC)C2)CC(=O)[C@H](C)/C=C(\C)[C@@H](O)[C@@H](OC)C(=O)[C@H](C)C[C@H](C)/C=C/C=C/C=C/1C` [Example 13, 7-Demethoxy-7(S)-allylrapamycin]: the IC50 is less than 500 nM.

Regarding `CO[C@@H]1C[C@H](C[C@@H](C)[C@@H]2CC(=O)[C@H](C)/C=C(\C)[C@@H](O)[C@@H](OC)C(=O)[C@H](C)C[C@H](C)/C=C/C=C/C=C(\C)[C@@H](c3ccco3)C[C@@H]3CC[C@@H](C)[C@@](O)(O3)C(=O)C(=O)N3CCCC[C@H]3C(=O)O2)CC[C@H]1O` [Example 7, 7-Demethoxy-7(S)-(2'-furanyl)rapamycin], the IC50 is less than 500 nM.

Regarding `CO[C@@H]1C[C@H](C[C@@H](C)[C@@H]2CC(=O)[C@H](C)/C=C(\C)[C@@H](O)[C@@H](OC)C(=O)[C@H](C)C[C@H](C)/C=C/C=C/C=C(\C)CC[C@@H]3CC[C@@H](C)[C@@](O)(O3)C(=O)C(=O)N3CCCC[C@H]3C(=O)O2)CC[C@H]1O` [Example 8, 7-Demethoxyrapamycin], the IC50 was less than 500 nM.

As to `COc1ccc(CO[C@H]2C[C@@H]3CC[C@@H](C)[C@@](O)(O3)C(=O)C(=O)N3CCCC[C@H]3C(=O)O[C@H]([C@H](C)C[C@@H]3CC[C@@H](O)[C@H](OC)C3)CC(=O)[C@H](C)/C=C(\C)[C@@H](O)[C@@H](OC)C(=O)[C@H](C)C[C@H](C)/C=C/C=C/C=C/2C)cc1OC` [Example 3, 7-Demethoxy-7(S)-(3,4-dimethoxybenzyloxy)rapamycin], the 50% inhibitory concentration (IC50) is less than 500 nM.

On to `CO[C@@H]1C[C@H](C[C@@H](C)[C@@H]2CC(=O)[C@H](C)/C=C(\C)[C@@H](O)[C@@H](OC)C(=O)[C@H](C)C[C@H](C)/C=C/C=C/C=C(\C)[C@H](O)C[C@@H]3CC[C@@H](C)[C@@](O)(O3)C(=O)C(=O)N3CCCC[C@H]3C(=O)O2)CC[C@H]1O` [Example 19, 7-O-Demethyl-7-Epirapamycin], for which the half-inhibitory concentration (IC50) was less than 500 nM.

Consider `CO[C@@H]1C[C@H](C[C@@H](C)[C@@H]2CC(=O)[C@H](C)/C=C(\C)[C@@H](O)[C@@H](OC)C(=O)[C@H](C)C[C@H](C)/C=C/C=C/C=C(\C)C(=O)C[C@@H]3CC[C@@H](C)[C@@](O)(O3)C(=O)C(=O)N3CCCC[C@H]3C(=O)O2)CC[C@H]1O` [Example 17, 7-Demethoxy-7-Oxorapamycin], for which the concentration for half-maximal inhibition (IC50) is less than 500 nM.

As for `CCO[C@@H]1C[C@@H]2CC[C@@H](C)[C@@](O)(O2)C(=O)C(=O)N2CCCC[C@H]2C(=O)O[C@H]([C@H](C)C[C@@H]2CC[C@@H](O)[C@H](OC)C2)CC(=O)[C@H](C)/C=C(\C)[C@@H](O)[C@@H](OC)C(=O)[C@H](C)C[C@H](C)/C=C/C=C/C=C/1C` [Example 2, 7-Demethoxy-7(R)-ethoxyrapamycin], the IC50 was less than 500 nM.

As for `CO[C@@H]1C[C@H](C[C@@H](C)[C@@H]2CC(=O)[C@H](C)/C=C(\C)[C@@H](O)[C@@H](OC)C(=O)[C@H](C)C[C@H](C)/C=C/C=C/C=C(\C)[C@@H](OCCO)C[C@@H]3CC[C@@H](C)[C@@](O)(O3)C(=O)C(=O)N3CCCC[C@H]3C(=O)O2)CC[C@H]1O` [Example 4, 7-Demethoxy-7(S)-(2-hydroxyethoxy)rapamycin], the IC50 was less than 500 nM.

For `CO[C@@H]1C[C@H](C[C@@H](C)[C@@H]2CC(=O)[C@H](C)/C=C(\C)[C@@H](O)[C@@H](OC)C(=O)[C@H](C)C[C@H](C)/C=C/C=C/C=C(\C)[C@@H](O)C[C@@H]3CC[C@@H](C)[C@@](O)(O3)C(=O)C(=O)N3CCCC[C@H]3C(=O)O2)CC[C@H]1O` [Example 18, 7-O-Demethylrapamycin], the IC50 is less than 500 nM.

Regarding `CO[C@@H]1C[C@H](C[C@@H](C)[C@@H]2CC(=O)[C@H](C)/C=C(\C)[C@@H](O)[C@@H](OC)C(=O)[C@H](C)C[C@H](C)/C=C/C=C/C=C(\C)[C@@H](Sc3ccccc3)C[C@@H]3CC[C@@H](C)[C@@](O)(O3)C(=O)C(=O)N3CCCC[C@H]3C(=O)O2)CC[C@H]1O` [Example 11, 7-Demethoxy-7 (S)-phenylthiorapamycin], the IC50 was less than 500 nM.

As to `CCO[C@H]1C[C@@H]2CC[C@@H](C)[C@@](O)(O2)C(=O)C(=O)N2CCCC[C@H]2C(=O)O[C@H]([C@H](C)C[C@@H]2CC[C@@H](O)[C@H](OC)C2)CC(=O)[C@H](C)/C=C(\C)[C@@H](O)[C@@H](OC)C(=O)[C@H](C)C[C@H](C)/C=C/C=C/C=C/1C` [Example 1, 7-Demethoxy-7(S)-ethoxyrapamycin], the concentration for half-maximal inhibition (IC50) was less than 500 nM.

For `CO[C@@H]1C[C@H](C[C@@H](C)[C@@H]2CC(=O)[C@H](C)/C=C(\C)[C@@H](O)[C@@H](OC)C(=O)[C@H](C)C[C@H](C)/C=C/C=C/C=C(\C)[C@@H](SC)C[C@@H]3CC[C@@H](C)[C@@](O)(O3)C(=O)C(=O)N3CCCC[C@H]3C(=O)O2)CC[C@H]1O` [Example 9, 7-Demethoxy-7(S)-methylthiorapamycin], the half-inhibitory concentration (IC50) was less than 500 nM.

A word on the IC50: it is the concentration at which inhibition is half-maximal.
